Values after ≈ are worked out from the molar mass of the structure shown. “Also recorded” adds a separate entry of the source.
Columns and labels:
M. tuberculosis 45776 = test: microbe, parasite or virus in culture; assay type: cell-based; details: Mycobacterium tuberculosis
M. tuberculosis 59744 = test: microbe, parasite or virus in culture; assay type: cell-based; details: Mycobacterium tuberculosis
Mtb strains = test: MIC, summary statement for Mtb strains; assay type: cell-based; details: Mycobacterium tuberculosis
Mtb-T313A = assay type: cell-based, Mycobacterium tuberculosis
M. tuberculosis MB3649 = test: microbe, parasite or virus in culture; assay type: cell-based; details: Mycobacterium tuberculosis
M. tuberculosis 43061 = test: microbe, parasite or virus in culture; assay type: cell-based; details: Mycobacterium tuberculosis
[1] = tested on: Mtb spontaneous-resistant mutants 1 to 3 / rMtb-L176P; assay type: cell-based, Mycobacterium tuberculosis
M. tuberculosis 49975 = test: microbe, parasite or virus in culture; assay type: cell-based; details: Mycobacterium tuberculosis
M. tuberculosis MI1020 = test: microbe, parasite or virus in culture; assay type: cell-based; details: Mycobacterium tuberculosis
drug resistant isolates = test: microbe, parasite or virus in culture; assay type: cell-based, M. tuberculosis; details: Mycobacterium tuberculosis

SMILES	MIC (M. tuberculosis 45776) [µM]	MIC (M. tuberculosis 59744) [µM]	MIC (Mtb strains) [µM]	activity against T313A mutant (Mtb-T313A)	MIC (M. tuberculosis MB3649) [µM]	MIC (M. tuberculosis 43061) [µM]	resistance of mutants against compound [1]	MIC (M. tuberculosis 49975) [µM]	MIC (M. tuberculosis MI1020) [µM]	MIC (drug resistant isolates) [µM]
Cc1c(OCC(F)(F)F)ccnc1CSc1nc2ccccc2[nH]1 [LPZS, Lanzoprazole sulfide]	0.52 (≈ 0.184 µg/mL)	0.78 (≈ 0.276 µg/mL)	< 2	active; also recorded: does not confer high level resistance	1.37 (≈ 0.484 µg/mL)	0.49 (≈ 0.173 µg/mL)	stable phenotypic resistance	1.06 (≈ 0.375 µg/mL)	0.94 (≈ 0.332 µg/mL)	< 2
CCc1nc2ccc(Cl)cn2c1C(=O)NCc1ccc(N2CCC(c3ccc(OC(F)(F)F)cc3)CC2)cc1 [Q203, reference compound]	–	–	–	resistant; also recorded: high level resistance	–	–	–	–	–	–
